Data: patent US9155752B2, “Liver function-improving agent” (UENO FINE CHEMICALS INDUSTRY, LTD., priority 2012, dated 2015)
“Also recorded” adds a separate entry of the source.

System: NASH mice
Assay: Sirius Red staining of liver, fibrosis area % (Test Example 3)
Assay type: in vivo
Details: for Fibrosis area % (Sirius Red staining), mean ± standard deviation: 8 weeks of age; for Fibrosis area %, Significant difference: Bonferroni, 5% level, tendency at 10% level
Source text: A solid diet CE-2 (lipid 4.6% by weight, manufactured by CLEA Japan, Inc.) was used as a normal diet. A solid diet, High Fat Diet 32 (lipid 32.0% by weight, sucrose 6.75% by weight, manufactured by CLEA Japan, Inc.), was used as a sucrose-containing high fat diet. As a maltitol-containing high-fat diet, a special diet (lipid 32.0% by weight, maltitol 6.08% by weight; manufactured by CLEA Japan, Inc.) obtained by replacing the total amount (6.75% by weight) of sucrose in a solid diet, High Fat Diet 32, with powdered maltitol (Whole Crystalline Maltitol Ueno 60M (purity of maltitol: 90%), manufactured by Ueno Fine Chemicals Industry Ltd.) was used. Sodium hypochlorite (PURELOX-S, manufactured by OYALOX Co., Ltd.) was added to pure water prepared by Elix-UV pure water producing apparatus, to a final concentration of 0.00009%, so that pure water for use in the test was obtained. An aqueous maltitol solution was prepared by dissolving powdered maltitol (Whole Crystalline Maltitol Ueno 60M (purity of maltitol: 90%), manufactured by Ueno Fine Chemicals Industry Ltd.) in pure water to a concentration of 1.8% (weight/volume). The purity of maltitol in the aqueous maltitol solution was 1.62%. Twenty-one female SPF mice (C57BL/6J, produced by CLEA Japan, Inc.) on day 14 of pregnancy were purchased and acclimation was performed. All animals were allowed to make a natural birth and a born male was used to produce a model. In addition, the weaning was at 4 weeks after birth. Streptozotocin (Sigma-Aldrich Japan K.K.) was adjusted to a concentration of 10 mg/mL with a physiological saline solution (manufactured by Otsuka Pharmaceutical Factory, Inc.) and the solution was subcutaneously administered once to the back of 2-day-old male mice at a dose of 20 μL/mouse (200 μg/mouse). Afterwards, the mother animal took care of the baby until weaning. The weaning was on day 28±2 after birth. After the weaning, a normal diet was supplied ad libitum to animals receiving no streptozotocin (normal mice (group S1 and group 1)), and a sucrose-containing high fat diet was supplied ad libitum to animals receiving streptozotocin (NASH mice (group S2, group 2, group 3, and group 4). A normal diet was supplied ad libitum to normal mice (group 1). With respect to NASH mice, a sucrose-containing high fat diet was supplied ad libitum to the sucrose group (group 2), and a maltitol-containing high fat diet was supplied ad libitum to the maltitol-low dose group (group 3) and the maltitol-high dose group (group 4). An aqueous maltitol solution was supplied ad libitum only to the maltitol-high dose group (group 4) of 5 to 8 weeks of age, and pure water was supplied ad libitum to the groups other than group 4 of 5 to 8 weeks of age. Six male animals per group were assigned to groups S1 and S2, reared up to 5 weeks of age, and then necropsied. Eight male animals per group were assigned to groups 1, 2, 3 and 4, reared up to 8 weeks of age, and then necropsied. At scheduled necropsy of the animals of 5 or 8 weeks of age, all individuals were anesthetized with diethyl ether (manufactured by Sigma-Aldrich Japan K.K.) and a needle through which heparin sodium (Novo Heparin Injection 1000, manufactured by Mochida Pharmaceutical Co., Ltd.) had been passed was punctured to the heart to aspirate the whole blood, leading to euthanasia, followed by harvest of the organ. […]

Row | Compound | Fibrosis area % (Sirius Red staining), mean ± standard deviation (Group 2, sucrose group: HFD32 (sucrose 6.75%) + pure water) | Fibrosis area %, Significant difference (Group 3 (low-dose maltitol) vs sucrose group (group 2)) | Fibrosis area % (Sirius Red staining), mean ± standard deviation (Group 3, low-dose maltitol: HFD32-M (maltitol 6.08%) + pure water) | Fibrosis area %, Significant difference (Group 4 (high-dose maltitol) vs sucrose group (group 2)) | Fibrosis area % (Sirius Red staining), mean ± standard deviation (Group 4, high-dose maltitol: HFD32-M (maltitol 6.08%) + aqueous maltitol solution 1.62%)
1 | OC[C@H]1O[C@@](CO)(O[C@H]2O[C@H](CO)[C@@H](O)[C@H](O)[C@H]2O)[C@@H](O)[C@@H]1O [sucrose, reference compound] | 1.09 ± 0.23% | – | – | – | –
2 | OC[C@@H](O)[C@@H](O[C@H]1O[C@H](CO)[C@@H](O)[C@H](O)[C@H]1O)[C@H](O)[C@@H](O)CO [maltitol] | – | tendency to be low; also recorded: Tendency to be different | 0.89 ± 0.15% | tendency to be low; also recorded: Tendency to be different | 0.86 ± 0.27%
